Test results from patent US20260109732A1, “LIPID AMINES” (ModernaTX, Inc., priority 2021, published 2026).
Counter-ions that a name gives are not always drawn.

How the values were obtained:
HeLa cells [1] = test: Luciferase Protein Expression Assay in HeLa Cells; format: cell-based, Human; conditions: LNPs encapsulating Luciferase mRNA, 25 ng per well, N=4 wells; 5 h serum-free then 24 h; ONE-Glo
How it was run: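 HeLa cells received LNPs carrying luciferase mRNA (25 ng per well) or PBS in serum-free MEM for 5 h, then complete MEM for a further 24 h. Luciferase then read by ONE-Glo luminescence after lysis and reported as average RLU of 4 replicate wells.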

[2] = Encapsulation of mRNA nanoparticles with lipid amines using Ribogreen assay; format: physicochemical
How it was run: (§1)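 Ionizable lipid nanoparticles (IL1:DSPC:cholesterol:PEG-DMG-2K) formed by vortex mixing at pH 4, loaded with luciferase or CFTR mRNA at N:P 4.93, neutralized with TRIS pH 8.12, then modified with lipid amine SA50 at pH 7.5. Particle diameter and PDI read by DLS; mRNA encapsulation by Ribogreen assay.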

[3] = Diameter and PDI from DLS measurements of mRNA nanoparticles with lipid amines; format: physicochemical
How it was run: as §1

HeLa cells [4] = test: CFTR Protein Expression Assay in HeLa Cells; format: cell-based, Human; conditions: LNPs encapsulating CFTR mRNA, N=4 wells; 5 h serum-free then 24 h; immunofluorescence vs PBS control
How it was run: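 HeLa cells dosed with CFTR mRNA LNPs (70 mM NaCl final buffer matrix) in serum-free MEM for 5 h, then complete MEM for 24 h. Fixed cells immunostained with anti-CFTR monoclonal and Alexa 488 secondary, imaged confocally; CFTR intensity per cell expressed as fold-change versus PBS buffer control, N=4 wells.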

[5] = CFTR mRNA nanoparticle with lipid amine
[6] = Luciferase mRNA nanoparticle modified with lipid amine

## CC[C@H](CC[C@@H](C)[C@H]1CC[C@H]2[C@@H]3CC=C4C[C@@H](OC(=O)CCCC(=O)N(CCC(C)N)CCC(C)N)CC[C@]4(C)[C@H]3CC[C@]12C)C(C)C (stereo partly drawn) [SA156, (3S,8S,9S,10R,13R,14S,17R)-17-((2R,5R)-5-ethyl-6-methylheptan-2-yl)-10,13-dimethyl-2,3,4,7,8,9,10,11,12,13,14,15,16,17-tetradecahydro-1H-cyclopenta[a]phenanthren-3-yl 5-(bis(3-aminobutyl)amino)-5-oxopentanoate dihydrochloride]
HeLa cells [1]
  Average Relative Light Units ± Standard Deviation: 37662.9 ± 8258.6 Relative Light Units
[2]; [5]
  % Encapsulation (Ribogreen): 99.6%
[2]; [6]
  % Encapsulation (Ribogreen): 99.5%
[3]; [5]
  Diameter (nm): 76.5 nm
  PDI: 0.18
[3]; [6]
  Diameter (nm): 74 nm
  PDI: 0.15
HeLa cells [4]
  Average fold-change in CFTR signal intensity per cell compared to buffer control ± standard deviation: 14.6 ± 0.8 fold-change

## CC(C)CCC[C@@H](C)[C@H]1CC[C@H]2[C@@H]3CC=C4C[C@@H](OC(=O)N(CCCC(C)(C)N)CCC(C)(C)N)CC[C@]4(C)[C@H]3CC[C@]12C [SA157, (3S,8S,9S,10R,13R,14S,17R)-10,13-dimethyl-17-((R)-6-methylheptan-2-yl)-2,3,4,7,8,9,10,11,12,13,14,15,16,17-tetradecahydro-1H-cyclopenta[a]phenanthren-3-yl (3-amino-3-methylbutyl)(4-amino-4-methylpentyl)carbamate dihydrochloride]
HeLa cells [1]
  Average Relative Light Units ± Standard Deviation: 24130.4 ± 4741.7 Relative Light Units
[2]; [5]
  % Encapsulation (Ribogreen): 99.8%
[2]; [6]
  % Encapsulation (Ribogreen): 99.6%
[3]; [5]
  Diameter (nm): 73.9 nm
  PDI: 0.16
[3]; [6]
  Diameter (nm): 75 nm
  PDI: 0.13
HeLa cells [4]
  Average fold-change in CFTR signal intensity per cell compared to buffer control ± standard deviation: 15.9 ± 1.4 fold-change

## CC(C)CCC[C@@H](C)[C@H]1CC[C@H]2[C@@H]3CC=C4C[C@@H](OC(=O)N(CCC(C)(C)N)CCC(C)(C)N)CC[C@]4(C)[C@H]3CC[C@]12C [SA158, (3S,8S,9S,10R,13R,14S,17R)-10,13-dimethyl-17-((R)-6-methylheptan-2-yl)-2,3,4,7,8,9,10,11,12,13,14,15,16,17-tetradecahydro-1H-cyclopenta[a]phenanthren-3-yl bis(3-amino-3-methylbutyl)carbamate dihydrochloride]
HeLa cells [1]
  Average Relative Light Units ± Standard Deviation: 33097.8 ± 7405.1 Relative Light Units
[2]; [5]
  % Encapsulation (Ribogreen): 98.3%
[2]; [6]
  % Encapsulation (Ribogreen): 99.7%
[3]; [5]
  Diameter (nm): 72.4 nm
  PDI: 0.15
[3]; [6]
  Diameter (nm): 79 nm
  PDI: 0.28
HeLa cells [4]
  Average fold-change in CFTR signal intensity per cell compared to buffer control ± standard deviation: 20.4 ± 1.3 fold-change

## CC(C)CCC[C@@H](C)[C@H]1CC[C@H]2[C@@H]3CC=C4C[C@@H](OC(=O)CCC(=O)N(CCCCNCCC(C)N)CCC(C)N)CC[C@]4(C)[C@H]3CC[C@]12C (stereo partly drawn) [SA160, (3S,8S,9S,10R,13R,14S,17R)-10,13-dimethyl-17-((R)-6-methylheptan-2-yl)-2,3,4,7,8,9,10,11,12,13,14,15,16,17-tetradecahydro-1H-cyclopenta[a]phenanthren-3-yl 4-((3-aminobutyl)(4-((3-aminobutyl)amino)butyl)amino)-4-oxobutanoate trihydrochloride]
HeLa cells [1]
  Average Relative Light Units ± Standard Deviation: 19694.4 ± 6954.5 Relative Light Units
[2]; [5]
  % Encapsulation (Ribogreen): 98.1%
[2]; [6]
  % Encapsulation (Ribogreen): 99.7%
[3]; [5]
  Diameter (nm): 77.4 nm
  PDI: 0.15
[3]; [6]
  Diameter (nm): 75 nm
  PDI: 0.11
HeLa cells [4]
  Average fold-change in CFTR signal intensity per cell compared to buffer control ± standard deviation: 18.2 ± 1.4 fold-change

## CC[C@H](CC[C@@H](C)[C@H]1CC[C@H]2[C@@H]3CC=C4C[C@@H](OC(=O)CCC(=O)N(CCCCNCCC(C)(C)N)CCC(C)(C)N)CC[C@]4(C)[C@H]3CC[C@]12C)C(C)C [SA161, (3S,8S,9S,10R,13R,14S,17R)-17-((2R,5R)-5-ethyl-6-methylheptan-2-yl)-10,13-dimethyl-2,3,4,7,8,9,10,11,12,13,14,15,16,17-tetradecahydro-1H-cyclopenta[a]phenanthren-3-yl 4-((3-amino-3-methylbutyl)(4-((3-amino-3-methylbutyl)amino)butyl)amino)-4-oxobutanoate trihydrochloride]
HeLa cells [1]
  Average Relative Light Units ± Standard Deviation: 17839.3 ± 7760 Relative Light Units
[2]; [5]
  % Encapsulation (Ribogreen): 99.6%
[2]; [6]
  % Encapsulation (Ribogreen): 99.6%
[3]; [5]
  Diameter (nm): 74.2 nm
  PDI: 0.15
[3]; [6]
  Diameter (nm): 77 nm
  PDI: 0.16
HeLa cells [4]
  Average fold-change in CFTR signal intensity per cell compared to buffer control ± standard deviation: 14.1 ± 1.5 fold-change

## CC(C)CCC[C@@H](C)[C@H]1CC[C@H]2[C@@H]3CC=C4C[C@@H](OC(=O)CCC(=O)N(CCCCCCCC(C)N)CCC(C)N)CC[C@]4(C)[C@H]3CC[C@]12C (stereo partly drawn) [SA162, (3S,8S,9S,10R,13R,14S,17R)-10,13-dimethyl-17-((R)-6-methylheptan-2-yl)-2,3,4,7,8,9,10,11,12,13,14,15,16,17-tetradecahydro-1H-cyclopenta[a]phenanthren-3-yl 4-((3-aminobutyl)(8-aminononyl)amino)-4-oxobutanoate dihydrochloride]
HeLa cells [1]
  Average Relative Light Units ± Standard Deviation: 34454.6 ± 3101.8 Relative Light Units
[2]; [5]
  % Encapsulation (Ribogreen): 98.6%
[2]; [6]
  % Encapsulation (Ribogreen): 99.4%
[3]; [5]
  Diameter (nm): 75.4 nm
  PDI: 0.16
[3]; [6]
  Diameter (nm): 75 nm
  PDI: 0.15
HeLa cells [4]
  Average fold-change in CFTR signal intensity per cell compared to buffer control ± standard deviation: 21.3 ± 0.6 fold-change

## CC[C@H](CC[C@@H](C)[C@H]1CC[C@H]2[C@@H]3CC=C4C[C@@H](OC(=O)CCC(=O)N(CCCCCCCC(C)N)CCC(C)N)CC[C@]4(C)[C@H]3CC[C@]12C)C(C)C (stereo partly drawn) [SA163, (3S,8S,9S,10R,13R,14S,17R)-17-((2R,5R)-5-ethyl-6-methylheptan-2-yl)-10,13-dimethyl-2,3,4,7,8,9,10,11,12,13,14,15,16,17-tetradecahydro-1H-cyclopenta[a]phenanthren-3-yl 4-((3-aminobutyl)(8-aminononyl)amino)-4-oxobutanoate dihydrochloride]
HeLa cells [1]
  Average Relative Light Units ± Standard Deviation: 30168 ± 7878.9 Relative Light Units
[2]; [5]
  % Encapsulation (Ribogreen): 100%
[2]; [6]
  % Encapsulation (Ribogreen): 99.1%
[3]; [5]
  Diameter (nm): 70.6 nm
  PDI: 0.09
[3]; [6]
  Diameter (nm): 71 nm
  PDI: 0.17
HeLa cells [4]
  Average fold-change in CFTR signal intensity per cell compared to buffer control ± standard deviation: 11.3 ± 0.5 fold-change

## CC(C)CCC[C@@H](C)[C@H]1CC[C@H]2[C@@H]3CC=C4C[C@@H](OC(=O)CCC(=O)N(CCCCCCCC(C)(C)N)CCC(C)(C)N)CC[C@]4(C)[C@H]3CC[C@]12C [SA164, (3S,8S,9S,10R,13R,14S,17R)-10,13-dimethyl-17-((R)-6-methylheptan-2-yl)-2,3,4,7,8,9,10,11,12,13,14,15,16,17-tetradecahydro-1H-cyclopenta[a]phenanthren-3-yl 4-((3-amino-3-methylbutyl)(8-amino-8-methylnonyl)amino)-4-oxobutanoate dihydrochloride]
HeLa cells [1]
  Average Relative Light Units ± Standard Deviation: 17129.2 ± 2374.1 Relative Light Units
[2]; [5]
  % Encapsulation (Ribogreen): 99.2%
[2]; [6]
  % Encapsulation (Ribogreen): 98.0%
[3]; [5]
  Diameter (nm): 72.5 nm
  PDI: 0.14
[3]; [6]
  Diameter (nm): 73 nm
  PDI: 0.14
HeLa cells [4]
  Average fold-change in CFTR signal intensity per cell compared to buffer control ± standard deviation: 16.2 ± 0.7 fold-change

## CC[C@H](CC[C@@H](C)[C@H]1CC[C@H]2[C@@H]3CC=C4C[C@@H](OC(=O)CCC(=O)N(CCCCCCCC(C)(C)N)CCC(C)(C)N)CC[C@]4(C)[C@H]3CC[C@]12C)C(C)C [SA165, (3S,8S,9S,10R,13R,14S,17R)-17-((2R,5R)-5-ethyl-6-methylheptan-2-yl)-10,13-dimethyl-2,3,4,7,8,9,10,11,12,13,14,15,16,17-tetradecahydro-1H-cyclopenta[a]phenanthren-3-yl 4-((3-amino-3-methylbutyl)(8-amino-8-methylnonyl)amino)-4-oxobutanoate dihydrochloride]
HeLa cells [1]
  Average Relative Light Units ± Standard Deviation: 33585.6 ± 7766.5 Relative Light Units
[2]; [5]
  % Encapsulation (Ribogreen): 98.8%
[2]; [6]
  % Encapsulation (Ribogreen): 98.8%
[3]; [5]
  Diameter (nm): 69.8 nm
  PDI: 0.12
[3]; [6]
  Diameter (nm): 72 nm
  PDI: 0.13
HeLa cells [4]
  Average fold-change in CFTR signal intensity per cell compared to buffer control ± standard deviation: 14.0 ± 0.5 fold-change

## CC(C)CCC[C@@H](C)[C@H]1CC[C@H]2[C@@H]3CC=C4C[C@@H](OC(=O)CCC(=O)N(CCCC(C)(C)N)CCC(C)(C)N)CC[C@]4(C)[C@H]3CC[C@]12C [SA166, (3S,8S,9S,10R,13R,14S,17R)-10,13-dimethyl-17-((R)-6-methylheptan-2-yl)-2,3,4,7,8,9,10,11,12,13,14,15,16,17-tetradecahydro-1H-cyclopenta[a]phenanthren-3-yl 4-((3-amino-3-methylbutyl)(4-amino-4-methylpentyl)amino)-4-oxobutanoate dihydrochloride]
HeLa cells [1]
  Average Relative Light Units ± Standard Deviation: 33377.3 ± 8879.8 Relative Light Units
[2]; [5]
  % Encapsulation (Ribogreen): 99.5%
[2]; [6]
  % Encapsulation (Ribogreen): 99.2%
[3]; [5]
  Diameter (nm): 76.1 nm
  PDI: 0.16
[3]; [6]
  Diameter (nm): 75 nm
  PDI: 0.14
HeLa cells [4]
  Average fold-change in CFTR signal intensity per cell compared to buffer control ± standard deviation: 15.6 ± 1.3 fold-change
